Measurements reported in patent US20170002011A1, “BENZENE SULFONAMIDES AS CCR9 INHIBITORS” (NORGINE B.V., priority 2013, published 2017).

Biological target: T1, CCR9 (Homo sapiens, UniProt P51686)
T1 sequence (P51686 1-369): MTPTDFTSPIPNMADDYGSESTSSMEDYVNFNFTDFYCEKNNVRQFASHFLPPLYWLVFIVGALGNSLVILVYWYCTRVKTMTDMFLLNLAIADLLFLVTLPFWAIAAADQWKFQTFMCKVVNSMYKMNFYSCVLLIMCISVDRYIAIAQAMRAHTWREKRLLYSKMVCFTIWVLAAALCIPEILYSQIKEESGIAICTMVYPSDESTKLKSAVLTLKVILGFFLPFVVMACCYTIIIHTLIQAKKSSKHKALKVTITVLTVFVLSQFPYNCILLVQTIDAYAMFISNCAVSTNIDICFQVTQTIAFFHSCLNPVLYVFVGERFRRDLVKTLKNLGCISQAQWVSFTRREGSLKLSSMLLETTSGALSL
Assay: FLIPR calcium flux assay using MOLT4 cells (TECK stimulation)
Type: cell-based
Parameters: endogenous in cells; host or cells: MOLT4 (human T-cell line)
Details: MOLT4 cells (a human T-cell line); Ki determined from IC50 of TECK-induced intracellular calcium increase
Protocol: Biological Activity: FLIPR Assay Using MOLT4 Cells
A calcium flux assay was used to determine the ability of the compounds to interfere with the binding between CCR9 and its chemokine ligand (TECK) in MOLT4 cells (a human T-cell line). MOLT4 cells were seeded (100,000 cells/well) in coming cell culture plates (Cat #3603) in assay buffer (lx HBSS, 20 mM HEPES) containing 2.5 mM Probenecid. The plate was centrifuged at 1200 rpm for 3 minutes and incubated at 37° C./5% CO2 for 2 hours. A 0.3× Fluo-4 NW calcium dye was prepared in assay buffer containing 5 mM Probenecid and stored in the dark. Each well was loaded with 25 μL of 0.3× Fluo-4 NW calcium dye and incubated at 37 C/5% CO2 for 60 minutes and then at room temperature for 30 minutes. A half-log serially diluted concentration response curve was prepared at a 4× concentration for each (10 μM-0.1 nM final assay concentration) and 25 μL of the compound then transferred to the cells (100 μL final volume) for 60 minutes prior to stimulation (30 minutes at 37° C./5% CO2 and 30 minutes at room temperature). TECK was diluted to 5× its EC50 in assay buffer (containing 0.1% [w/v] bovine serum albumin [BSA]) and 25 μL dispensed through the FLIPR instrument to stimulate the cells (125 μL final volume). The increased in intracellular calcium levels was measured with the FLIPR instrument. The potency of the compound as CCR9 antagonist was calculated as an IC50 using GraphPad Prism software (variable slope four parameter). The Ki of the compound was determined from the IC50 values using the following equation.
Ki calculation: IC50/1+(Agonist (TECK) conc. used in assay/EC50 of agonist (TECK) generated on day of experiment)

Ki [nM] | SMILES
4000 | Cc1cc2nccc(NS(=O)(=O)c3ccc(N4CCOCC4)cc3)n2n1 [Compound 22]
1700 | Cc1cc2nccc(NS(=O)(=O)c3ccc(C(F)(F)F)cc3)n2n1 [Compound 23]
6190 | Cc1cc2nccc(NS(=O)(=O)c3ccc(Br)cc3)n2n1 [Compound 28]
1780 | Cc1cc2nccc(NS(=O)(=O)c3cccc(C(C)(C)C)c3)n2n1 [Compound 32]
1210 | Cc1cc2nccc(NS(=O)(=O)c3ccc(OC(F)F)cc3)n2n1 [Compound 33]
5890 | O=S(=O)(Nc1ccnc2cc(C3CC3)nn12)c1cccc(C(F)(F)F)c1 [Compound 39]
1880 | O=S(=O)(Nc1ccnc2cc(C3CC3)nn12)c1ccc(C(F)(F)F)cc1 [Compound 41]
1590 | O=S(=O)(Nc1ccnc2cc(C3CC3)nn12)c1ccc(OC(F)(F)F)cc1 [Compound 42]
1420 | CC(C)(C)c1cccc(S(=O)(=O)Nc2ccnc3cc(C4CC4)nn23)c1 [Compound 44]
3750 | O=S(=O)(Nc1ccnc2cc(C3CC3)nn12)c1cccc(OC(F)(F)F)c1 [Compound 50]
3200 | O=S(=O)(Nc1ccnc2cc(C3CC3)nn12)c1ccc(OC(F)F)cc1 [Compound 51]
253 | CC(C)(C)c1ccc(S(=O)(=O)Nc2ccnc3cc(-c4cccnc4)nn23)cc1 [Compound 62, 4-(tert-butyl)-N-(2-(pyridin-3-yl)pyrazolo[1,5-a]pyrimidin-7-yl)benzenesulfonamide]
1550 | CC(C)(C)c1ccc(S(=O)(=O)Nc2ccnc3cc(-c4ccc(C#N)cc4)nn23)cc1 [Compound 75, 4-(tert-butyl)-N-(2-(4-cyanophenyl)pyrazolo[1,5-a]pyrimidin-7-yl)benzenesulfonamide]
3230 | CCc1cc2nccc(NS(=O)(=O)c3ccc(Cl)c(C(F)(F)F)c3)n2n1 [Compound 87]
1380 | O=S(=O)(Nc1ccnc2cc(-c3ccc(Cl)cc3)nn12)c1ccc(-c2cnco2)cc1 [Compound 90]
492 | CC(C)c1cc2c(Cl)ccc(NS(=O)(=O)c3ccc(C(F)(F)F)cc3)n2n1 [Compound 101]
177 | CCc1cc2c(Cl)ccc(NS(=O)(=O)c3ccc(C(F)(F)F)cc3)n2n1 [Compound 106]
456 | O=S(=O)(Nc1ccc(Cl)c2cc(C3CC3)nn12)c1ccc(Cl)c(C(F)(F)F)c1 [Compound 108]
92 | O=S(=O)(Nc1ccc(Cl)c2cc(-c3cccnc3)nn12)c1ccc(OC(F)(F)F)cc1 [Compound 112]
640 | O=S(=O)(Nc1ccc(Cl)c2cc(-c3cccnc3)nn12)c1ccc(F)cc1 [Compound 115]
1030 | O=S(=O)(Nc1ccc(Cl)c2cc(-c3ccc[n+]([O-])c3)nn12)c1ccc(OC(F)(F)F)cc1 [Compound 116]
219 | CC(C)(C#N)c1ccc(S(=O)(=O)Nc2ccc(Cl)c3cc(-c4cccnc4)nn23)cc1 [Compound 123]

Ki [nM] | SMILES
73 | COc1cc(-c2cc3c(Cl)ccc(NS(=O)(=O)c4ccc(C(C)C)cc4)n3n2)c[n+]([O-])c1 [Compound 126]
192 | COc1cncc(-c2cc3c(Cl)ccc(NS(=O)(=O)c4ccc(C(C)(C)C)cc4)n3n2)c1 [Compound 127]
170 | COc1cncc(-c2cc3c(Cl)ccc(NS(=O)(=O)c4ccc(C(F)(F)F)cc4)n3n2)c1 [Compound 128]
171 | CC(C)(C)c1ccc(S(=O)(=O)Nc2ccc(Cl)c3cc(-c4cncc(F)c4)nn23)cc1 [Compound 132]
182 | O=S(=O)(Nc1ccc(Cl)c2cc(-c3cncc(F)c3)nn12)c1ccc(C(F)(F)F)cc1 [Compound 133]
105 | Cn1nccc1-c1cc2c(Cl)ccc(NS(=O)(=O)c3ccc(C(C)(C)C)cc3)n2n1 [Compound 143]
39 | CC(C)(C)c1ccc(S(=O)(=O)Nc2ccc(C#N)c3cc(-c4ccncc4)nn23)cc1 [Compound 150]
76 | CC(C)(C)c1ccc(S(=O)(=O)Nc2ccc(C#N)c3cc(-c4cncc(C#N)c4)nn23)cc1 [Compound 154, 4-(tert-butyl)-N-(4-cyano-2-(5-cyanopyridin-3-yl)pyrazolo[1,5-a]pyridin-7-yl)benzenesulfonamide]
170 | COc1cncc(-c2cc3c(Br)ccc(NS(=O)(=O)c4ccc(C(C)(C)C)cc4)n3n2)c1 [Compound 160]
129 | Cn1cc(-c2cc3c(Br)ccc(NS(=O)(=O)c4ccc(C(C)(C)C)cc4)n3n2)cn1 [Compound 165, 4-(tert-butyl)-N-(4-bromo-2-(1-methyl-1H-pyrazol-4-yl)pyrazolo[1,5-a]pyridin-7-yl)benzenesulfonamide]
27 | CC(C)(C)c1ccc(S(=O)(=O)Nc2ccc(C#N)c3cc(-c4cnco4)nn23)cc1 [Compound 170, 4-(tert-butyl)-N-(4-cyano-2-(oxazol-5-yl)pyrazolo[1,5-a]pyridin-7-yl)benzenesulfonamide]
377 | COc1ccc(NS(=O)(=O)c2ccc(C(C)(C)C)cc2)n2nc(-c3cccnc3)cc12 [Compound 173, 4-(tert-butyl)-N-(4-methoxy-2-(pyridin-3-yl)pyrazolo[1,5-a]pyridin-7-yl)benzenesulfonamide]
116 | CCn1cc(-c2cc3c(Cl)ccc(NS(=O)(=O)c4ccc(C(C)(C)C)cc4)n3n2)cn1 [Compound 185]
318 | Cc1c(-c2cc3c(Cl)ccc(NS(=O)(=O)c4ccc(C(C)(C)C)cc4)n3n2)cnn1C [Compound 187]
194 | CC(C)(C)c1ccc(S(=O)(=O)Nc2ccc(Cl)c3cc(-c4cnccn4)nn23)cc1 [Compound 188]
81 | CC(C)(C)c1ccc(S(=O)(=O)Nc2ccc(C#N)c3cc(-c4ccccn4)nn23)cc1 [Compound 193]
110 | CCOc1ccc(-c2cc3c(Cl)ccc(NS(=O)(=O)c4ccc(C(C)(C)C)cc4)n3n2)cn1 [Compound 194]
34 | CCOc1ccc(-c2cc3c(C#N)ccc(NS(=O)(=O)c4ccc(C(C)(C)C)cc4)n3n2)cn1 [Compound 195]
189 | COc1ccc(-c2cc3c(Cl)ccc(NS(=O)(=O)c4ccc(C(C)(C)C)cc4)n3n2)cn1 [Compound 197]
192 | COc1ncccc1-c1cc2c(Cl)ccc(NS(=O)(=O)c3ccc(C(C)(C)C)cc3)n2n1 [Compound 201]
88 | Cc1ccncc1-c1cc2c(Cl)ccc(NS(=O)(=O)c3ccc(C(C)(C)C)cc3)n2n1 [Compound 208]
149 | COc1ccc(-c2cc3c(C#N)ccc(NS(=O)(=O)c4ccc(C(C)(C)C)cc4)n3n2)c(OC)n1 [Compound 210]
